Laboratory results from patent publication US11286259B2, “Co-crystals of ribociclib and co-crystals of ribociclib monosuccinate, preparation method therefor, compositions thereof, and uses thereof” (Hangzhou SoliPharma Co., Ltd., priority 2017, dated 2022).
Like-named read-outs stand apart in the source and are kept apart here.

How the values were obtained:
[1] = high humidity, mentioned in CN105085533A, cited from earlier work
[2] = water solubility test (apparent water solubility, HPLC detection); details: 10 mg in 10 mL deionized water, sonicated at 25° C. for 1 minute
[3] = desiccator, 4 months, room temperature, relative humidity of 10% to 90%
[4] = crystal form stability at high humidity; format: physicochemical
[5] = crystal stability test, samples placed at 80° C. for 24 hours, crystal form detection by XRPD; format: physicochemical; details: after being placed for 24 hours at 80° C.
[6] = stability test in water, stirred at 25° C. for 24 hours, crystal form detection by XRPD; format: physicochemical; details: for Crystal Form: 100 mg in 5 mL deionized water, stirred at 25° C. for 24 hours, XRPD
[7] = physchem; details: deionized water, 25 °C, thermodynamic from solid
[8] = hygroscopicity, isothermal adsorption curve (weight gain versus relative humidity); format: physicochemical
[9] = listed as co-crystal form of ribociclib monosuccinate and citric acid

For CN(C)C(=O)c1cc2cnc(Nc3ccc(N4CCNCC4)cn3)nc2n1C1CCCC1.O=C(O)CCC(=O)O [listing 1 of 2 here], the “sensitivity of the crystal form to humidity” value [1] is listed as “easily converts to other crystal forms at high humidity” and the “sensitivity of the crystal form to humidity” value ([1]; listed as anhydrate crystal form) is listed as “easily convert to other crystal forms at high humidity”.

In the case of CN(C)C(=O)c1cc2cnc(Nc3ccc(N4CCNCC4)cn3)nc2n1C1CCCC1.O=C(O)c1cc(=O)[nH]c(=O)[nH]1, the Solubility [2] is reported as 110 µg/mL, the “appearance, XRPD and melting point after storage” value (“appearance … after storage” for short) [3] is reported as “remain unchanged” and the “crystal form at high humidity” value [4] is reported as “remains unchanged”.

With CN(C)C(=O)c1cc2cnc(Nc3ccc(N4CCNCC4)cn3)nc2n1C1CCCC1.O=C(O)CC(O)(CC(=O)O)C(=O)O.O=C(O)CCC(=O)O the “Crystal Form” value [5] was “Unchanged”, the “Crystal Form” value [5, 9] was “remains unchanged” and the “appearance … after storage” value [3] was “remain unchanged”. For the same compound, the “crystal form at high humidity” value [4] was “remains unchanged”, the “Crystal Form” value [6, 9] was “remains unchanged” and the “Crystal Form” value ([6]; listed as co-crystal of ribociclib monosuccinateand citric acid) was “Unchanged”.

With CN(C)C(=O)c1cc2cnc(Nc3ccc(N4CCNCC4)cn3)nc2n1C1CCCC1.O=C(O)CCC(=O)O [listing 2 of 2 here] the “Crystal Form” value [6] was “cannot maintain its original crystal form” and the “crystal stability in water” value ([6]; in water, conditions not given, found by the inventors) was “crystallinity decreased significantly in water”.

For CN(C)C(=O)c1cc2cnc(Nc3ccc(N4CCNCC4)cn3)nc2n1C1CCCC1 [co-crystal of ribociclib and saccharin], the “Crystal Form” value [5] was “Unchanged”, the “Crystal Form” value ([5]; listed as co-crystal form of ribociclib and saccharin) was “remains unchanged” and the solubility at 1 min [7] was ~100 µg/mL. The weight gain ([8]; relative humidity of 0-10%) was 0.04%, the weight gain ([8]; relative humidity of 10 to 80%) was 0.45% and the “appearance … after storage” value [3] was “remain unchanged”. The “crystal form at high humidity” value [4] was “remains unchanged”.
